Patent US20250313535A1, “ALPHA 4 BETA 7 INTEGRIN MODULATORS AND USES THEREOF” (DICE MOLECULES SV, INC., priority 2022, published 2025)

What was measured:
α4β1 integrin = α4β1 integrin (Homo sapiens (Human), UniProt P05556+P13612); assay: Integrin Adhesion Assay: Protocol 2 (VCAM-coated plate, Jurkat cells, CellTiter GLO readout); assay type: cell-based; conditions: determined by at least one of the assays described (protocol not specified)
Method: α4β7 and α4β1 inhibition was evaluated in vitro using at least one of the following procedures:
Integrin Adhesion Assay: Protocol 2
VCAM (R&D Systems, 0.1 ug) was diluted in 50 μL PBS, added to each well of an opaque ELISA plate (Thermo), and incubated overnight at 4° C. Coated plates were washed once with PBS and then blocked with 200 μL of assay buffer (10 mM HEPES, 150 mM NaCl, 1 mM MnCl2, 0.1 mM CaCl2), 1% BSA) for 1 hour at 37° C. and 5% CO2. After incubation, buffer was aspirated from the plates and 50 μL of fresh assay buffer was added. Compounds were added by compounds dispenser (Tecan) and DMSO concentration was normalized to 1% across each plate. 50 μL of Jurkat cells (2×10^6 per mL) were added to each well and the plates were incubated for 1 hour at 37° C. and 5% CO2. After incubation, plates were allowed to cool to RT for 10 minutes before being washed four times in assay buffer by an automated plate washer (BioTek). After washing, 100 μL of a 1:1 mixture of assay buffer and CellTiter GLO 2.0 reagent (Promega) were added to each well. Plates were mixed for 2 minutes at 1000 rpm and then allowed to incubate an additional 10 minutes before reading out luminescence on a Tecan Spark plate reader. Raw data was converted to percent inhibition based on DMSO only and control compound wells, and curves were analyzed by 4-parameter fit within Dotmatics software.

α4β7 integrin = α4β7 integrin (Homo sapiens (Human), UniProt P13612+P26010); assay: Integrin Adhesion Assay: Protocol 1 (MAdCAM-coated plate, RPMI-8866 cells, CellTiter GLO readout); assay type: cell-based; conditions: integrin adhesion assay; determined by at least one of the assays described (protocol not specified)
α4β7 integrin, sequence (P13612 34-1032): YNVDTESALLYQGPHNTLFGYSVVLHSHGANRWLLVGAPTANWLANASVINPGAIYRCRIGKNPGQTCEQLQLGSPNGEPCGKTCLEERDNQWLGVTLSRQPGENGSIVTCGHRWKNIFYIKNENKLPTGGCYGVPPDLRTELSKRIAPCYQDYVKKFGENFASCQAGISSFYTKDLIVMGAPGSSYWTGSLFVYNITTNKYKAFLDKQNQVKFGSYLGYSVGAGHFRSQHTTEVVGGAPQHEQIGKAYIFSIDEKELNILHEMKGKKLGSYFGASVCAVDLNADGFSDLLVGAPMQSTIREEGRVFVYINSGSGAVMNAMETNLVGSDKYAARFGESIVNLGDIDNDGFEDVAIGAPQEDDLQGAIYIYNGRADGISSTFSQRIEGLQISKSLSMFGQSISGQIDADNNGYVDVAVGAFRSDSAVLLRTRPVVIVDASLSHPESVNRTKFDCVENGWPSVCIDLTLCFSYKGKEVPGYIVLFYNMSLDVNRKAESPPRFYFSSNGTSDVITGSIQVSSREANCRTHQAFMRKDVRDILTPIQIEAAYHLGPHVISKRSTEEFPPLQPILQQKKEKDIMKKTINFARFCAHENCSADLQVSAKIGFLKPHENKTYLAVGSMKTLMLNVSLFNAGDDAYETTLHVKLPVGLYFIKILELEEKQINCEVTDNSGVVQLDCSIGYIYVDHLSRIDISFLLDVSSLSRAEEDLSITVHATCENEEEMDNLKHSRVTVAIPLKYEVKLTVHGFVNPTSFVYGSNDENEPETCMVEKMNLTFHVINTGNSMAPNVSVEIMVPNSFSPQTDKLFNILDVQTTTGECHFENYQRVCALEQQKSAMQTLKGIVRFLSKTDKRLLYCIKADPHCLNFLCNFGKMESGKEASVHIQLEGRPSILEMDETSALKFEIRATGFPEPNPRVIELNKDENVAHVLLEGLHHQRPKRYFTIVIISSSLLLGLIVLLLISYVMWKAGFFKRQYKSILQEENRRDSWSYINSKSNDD
α4β7 integrin, sequence (P26010 20-798): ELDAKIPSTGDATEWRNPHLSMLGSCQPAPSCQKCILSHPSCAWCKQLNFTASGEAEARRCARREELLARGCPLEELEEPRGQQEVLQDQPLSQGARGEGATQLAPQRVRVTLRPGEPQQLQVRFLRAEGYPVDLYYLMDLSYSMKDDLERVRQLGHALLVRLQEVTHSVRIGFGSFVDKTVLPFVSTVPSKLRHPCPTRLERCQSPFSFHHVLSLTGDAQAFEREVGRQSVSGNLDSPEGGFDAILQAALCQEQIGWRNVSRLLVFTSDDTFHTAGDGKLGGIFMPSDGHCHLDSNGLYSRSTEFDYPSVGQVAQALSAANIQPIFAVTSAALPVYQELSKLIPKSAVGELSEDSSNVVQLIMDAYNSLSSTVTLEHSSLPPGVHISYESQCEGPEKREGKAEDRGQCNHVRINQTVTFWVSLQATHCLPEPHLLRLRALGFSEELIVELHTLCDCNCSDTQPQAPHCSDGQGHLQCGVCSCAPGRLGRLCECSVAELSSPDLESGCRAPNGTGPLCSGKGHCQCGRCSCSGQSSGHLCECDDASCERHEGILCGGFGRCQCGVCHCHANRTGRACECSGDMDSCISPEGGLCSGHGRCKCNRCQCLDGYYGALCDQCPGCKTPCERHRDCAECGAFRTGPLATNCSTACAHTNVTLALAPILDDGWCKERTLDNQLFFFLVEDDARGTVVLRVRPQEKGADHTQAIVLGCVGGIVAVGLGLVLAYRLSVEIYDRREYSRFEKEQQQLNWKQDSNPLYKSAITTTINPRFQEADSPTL
Outline: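 RPMI-8866 cells (2×10^6 per mL) added with compounds (1% DMSO) to MAdCAM-coated wells blocked in HEPES/NaCl buffer with 1 mM MnCl2, 0.1 mM CaCl2, 1% BSA; 1 h at 37° C, 5% CO2. After four washes, bound cells read by CellTiter GLO luminescence; % inhibition vs DMSO and control wells, 4-parameter fit.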

α4β1 integrin, sequence (P13612 34-1032): as the sequence (P13612 34-1032) above
α4β1 integrin, sequence (P05556 21-798): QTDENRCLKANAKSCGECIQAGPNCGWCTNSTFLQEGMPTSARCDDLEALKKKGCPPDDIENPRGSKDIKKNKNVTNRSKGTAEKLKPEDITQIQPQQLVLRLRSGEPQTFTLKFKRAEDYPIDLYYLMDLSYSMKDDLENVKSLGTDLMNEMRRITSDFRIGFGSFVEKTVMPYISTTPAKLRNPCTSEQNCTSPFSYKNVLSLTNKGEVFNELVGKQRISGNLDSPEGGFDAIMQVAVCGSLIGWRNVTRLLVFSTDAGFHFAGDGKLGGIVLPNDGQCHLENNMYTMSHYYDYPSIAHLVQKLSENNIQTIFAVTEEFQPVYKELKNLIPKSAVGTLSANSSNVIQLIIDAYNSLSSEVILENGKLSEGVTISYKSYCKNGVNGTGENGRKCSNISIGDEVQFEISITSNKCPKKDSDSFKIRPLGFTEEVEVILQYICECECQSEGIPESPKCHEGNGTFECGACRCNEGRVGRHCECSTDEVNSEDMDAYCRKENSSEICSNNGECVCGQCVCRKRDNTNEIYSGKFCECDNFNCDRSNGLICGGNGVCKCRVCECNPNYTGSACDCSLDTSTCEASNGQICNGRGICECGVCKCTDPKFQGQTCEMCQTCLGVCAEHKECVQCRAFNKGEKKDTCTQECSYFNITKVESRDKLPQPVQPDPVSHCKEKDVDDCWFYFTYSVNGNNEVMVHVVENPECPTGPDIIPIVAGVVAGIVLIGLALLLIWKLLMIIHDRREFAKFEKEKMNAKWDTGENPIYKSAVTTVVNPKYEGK

SMILES	IC50 (α4β1 integrin) [nM]	IC50 (α4β7 integrin) [nM]
O=C(N[C@@H](Cc1cccc2c(-c3cccc4ccncc34)cccc12)C(=O)O)c1c(F)cc(N(CC(F)(F)F)CC(F)(F)F)cc1CN1CCCC1 [Compound 151]	> 1000	< 10
Cn1c(=O)ccn(-c2cccc3c(C[C@H](NC(=O)c4c(F)cccc4F)C(=O)O)cccc23)c1=O [Compound 4]	> 1000	10 to 100
CN(C)CCn1ccc(=O)n(-c2cccc3c(C[C@H](NC(=O)c4c(F)cccc4F)C(=O)O)cccc23)c1=O [Compound 119]	> 1000	10 to 100
Cn1ccc(C(F)(F)F)c(-c2nccc3c(C[C@H](NC(=O)c4c(F)cc(N5CCOC[C@H]5C(F)(F)F)cc4F)C(=O)O)cccc23)c1=O [Compound 218]	> 1000	10 to 100
Cn1ccc(C(F)(F)F)c(-c2cccc3c(C[C@H](NC(=O)c4c(F)cc(N5CCOC[C@@H]5C(F)(F)F)cc4CN4CCOCC4)C(=O)O)cccc23)c1=O [Compound 143]	100 to 1000	< 10
Cn1ccc(=O)n(-c2cccc3c(C[C@H](NC(=O)[C@]45C[C@@H]6C[C@H](C4)C(F)(F)[C@@H](C6)C5)C(=O)O)cccc23)c1=O [Compound 65]	100 to 1000	100 to 1000
CCC1(C(=O)N[C@@H](Cc2cccc3c(-n4c(=O)ccn(C)c4=O)cccc23)C(=O)O)CCC(F)(F)CC1 [Compound 66]	> 1000	100 to 1000
Cn1ccc(=O)n(-c2cccc3c(C[C@H](NC(=O)C4(F)CCN(CC(F)(F)F)CC4)C(=O)O)cccc23)c1=O [Compound 164]	> 1000	> 1000
CN1CCN(Cc2cc(N3CCOC[C@@H]3C(F)(F)F)cc(F)c2C(=O)N[C@@H](Cc2cccc3c(-n4c(=O)ccn(C)c4=O)cccc23)C(=O)O)CC1 [Compound 22]	> 1000	< 10
CCOCc1cc(OC)c(-c2nccc3c(C[C@H](NC(=O)c4c(F)cccc4F)C(=O)O)cccc23)c(OC)c1 [Compound 260]	100 to 1000	10 to 100
Cn1ccc(=O)n(-c2cccc3c(C[C@H](NC(=O)[C@@]4(C)CCCN(CC(F)(F)F)CC4)C(=O)O)cccc23)c1=O [Compound 158]	> 1000	100 to 1000
Cn1ccc(=O)n(-c2cccc3c(C[C@H](NC(=O)c4ccc5cc(C(=O)N6CCC[C@@H]6c6ccccc6)ccc5c4)C(=O)O)cccc23)c1=O [Compound 49]	> 1000	> 1000

Other lines, results leading:

IC50 (α4β1 integrin) [nM]	IC50 (α4β7 integrin) [nM]	SMILES
> 1000	100 to 1000	Cn1ccc(C(F)(F)F)c(-c2nccc3c(C[C@H](NC(=O)c4c(F)cccc4C(F)(F)F)C(=O)O)cccc23)c1=O [Compound 258]
> 1000	10 to 100	Cn1ccc(=O)n(-c2cccc3c(C[C@H](NC(=O)C4(C)CCC(F)(F)CC4)C(=O)O)cccc23)c1=O [Compound 63]
> 1000	10 to 100	Cn1ccc(C(F)(F)F)c(-c2cccc3c(C[C@H](NC(=O)c4c(F)cc(N5CCOC[C@@H]5C(F)(F)F)cc4F)C(=O)O)cccc23)c1=O [Compound 142]
> 1000	> 1000	Cn1ccc(C(F)(F)F)c(-c2cccc3c(C[C@H](OCc4c(F)cccc4F)C(=O)O)cccc23)c1=O [Compound 80]
> 1000	< 10	O=C(N[C@@H](Cc1cccc2c(-n3c(=O)ccc4cnccc43)cccc12)C(=O)O)c1c(F)cccc1F [Compound 2]
> 1000	< 10	Cn1c(C(F)(F)F)ccc(-c2cccc3c(C[C@H](NC(=O)c4c(F)cc(N5CCOC[C@@H]5C(F)(F)F)cc4F)C(=O)O)cccc23)c1=O [Compound 67]
> 1000	10 to 100	Cn1ccc(=O)n([C@@H]2CCc3c(C[C@H](NC(=O)c4c(F)cccc4F)C(=O)O)cccc32)c1=O (single isomer, unassigned) [Compound 281]
> 1000	10 to 100	Cn1ccc(=O)n(-c2cccc3c(C[C@H](NC(=O)C4(C)CCN(C5COC5)CC4)C(=O)O)cccc23)c1=O [Compound 60]
> 1000	100 to 1000	Cn1ccc(=O)n(-c2cccc3c(C[C@H](NC(=O)C45CCC(C)(CC4)CC5)C(=O)O)cccc23)c1=O [Compound 52]
